# Measured values taken from US5258379A, “Method of inhibiting gastric acid secretion with n-arylpiperazines” (Eli Lilly and Company, priority 1992, dated 1993).
# Like-named read-outs stand apart in the source and are kept apart here.
# Experiments:
# gastric acid secretion = assay: inhibition of gastric acid secretion in the pylorus ligated rat model; format: in vivo, Male Sprague-Dawley rats; conditions: for inhibition in vivo at 10 µmol/kg / inhibition in vivo at 2 µmol/kg: Rattus norvegicus, read-out: Percent Inhibition; for ED50: Table VII, estimated from pylorus ligated rat data; for inhibition in vivo at 2 µmol/kg: 2.0 μmoles/kg; for Inhibition: Table VI
# Text: The gastric acid inhibition activity of direct acting 5-HT1A agonists was established by evaluations using the pylorus ligated rat model. In the pylorus ligated rat model, changes in basal acid secretion may reflect a stimulatory or inhibitory action depending on treatment of compound type tested. The compounds tested were confirmed by various receptor binding tests to have an affinity for the 5-HT1A receptor prior to testing in the pylorus ligated rat model.
# The pylorus ligated rat model used is a modification of the procedure developed by Shay (Shay, H., Komarov, A. A. and Greenstein, M.: "Effects of vagotomy in the rat." Arch. Surg. 49:210-226, 1949). Male Sprague-Dawley rats weighing approximately 200 g were starved 24 hours prior to using, with water allowed ad libitum. Under light ether anesthetic the pylorus is ligated, simultaneously the rat is dosed intraperitoneally (i.p.) or subcutaneously (s.c.) and allowed 2 hours for stomach acid accumulation. At the end of 2 hours the rats are sacrificed. Stomach content is measured and titrated to a pH end point of 7.0. Each experiment has its own control group for determining percent of acid change over the 2-hour time period.
# Specific compounds within the scope of the above general classes of direct acting 5-HT1A agonists were tested. For evaluation purposes, the compound to be tested is dissolved in distilled water, or in 10% dimethyl sulfoxide, depending upon its solubility. The results of these evaluations are set forth below in Tables I through VI. All compounds were dosed intraperitoneally, unless otherwise indicated.
# The ED50 values for certain specific compounds were estimated based on data from the pyrolus ligated rat model evaluations. […] Under "Dose", i.p. means intraperitoneally and s.c. means subcutaneously.
# gastric secretion = conditions: intravenous infusion in humans, cited from earlier work; for inhibition of gastric secretion (in words): spontaneous and histamine induced
# [1] = ip, 2 h, Table I, 10 μmoles/kg, intraperitoneally, 2 hours
# [2] = ip, 2 h, Table II, intraperitoneally, 2 hours
# [3] = ip, 2 h, Table V, 10 μmoles/kg, intraperitoneally, 2 hours
# [4] = Table I, 10 μmoles/kg, intraperitoneally, 2 hours
# [5] = ip, 2 h, Table II, 10 μmoles/kg, intraperitoneally, 2 hours
# [6] = ip, 2 h, Table IV, 10 μmoles/kg, intraperitoneally, 2 hours
# [7] = 10 μmoles/kg, intraperitoneally, 2 hours
structure (smiles),measurement,setting,value
"CCCN(CCC)C1CCc2cccc(OC)c2C1 (racemic) [Evaluation Example 1, (±) 8-methoxy-2-(dipropylamino)-1,2,3,4-tetrahydronaphthalene]",inhibition in vivo at 10 µmol/kg,gastric acid secretion; [1],96.4 ± 0.7%
same,ED50,"gastric acid secretion; ip, 2 h, i.p., read-out: ED50",1.54 µmol/kg
"CCCN(CCC)C1Cc2c[nH]c3ccc(C(=O)OC)c(c23)C1 (racemic) [Evaluation Example 13, (±)-4-(Di-n-propylamino)-1,3,4,5-tetrahydrobenz[c,d]indole-6-carboxylic acid, methyl ester]",inhibition in vivo at 2 µmol/kg,gastric acid secretion; [2],86.4 ± 2.5%
same,ED50,"gastric acid secretion; ip, 2 h, i.p., read-out: ED50",< 0.1 µmol/kg
"CN(C)C1Cc2c[nH]c3ccc(C=O)c(c23)C1 (racemic) [Evaluation Example 17, (±)-4-(Dimethylamino)-1,3,4,5-tetrahydrobenz[c,d]indole-6-carboxaldehyde]",inhibition in vivo at 2 µmol/kg,gastric acid secretion; [2],79.2 ± 4.6%
same,ED50,"gastric acid secretion; ip, 2 h, i.p., read-out: ED50",1.26 µmol/kg
"O=C1NCN(c2ccccc2)C12CCN(CC1COc3ccccc3O1)CC2 (single isomer, unassigned) [Evaluation Example 28]",inhibition in vivo at 10 µmol/kg,gastric acid secretion; [3],29.3 ± 10%
"O=C1NCN(c2ccccc2)C12CCN(CC1COc3ccccc3O1)CC2 (single isomer, unassigned) [Evaluation Example 29]",Percent Inhibition,"gastric acid secretion; Table V, 10 μmoles/kg, intraperitoneally, 2 hours",24.6 ± 9.2%
"NCCc1c[nH]c2ccc(O)cc12 [5-HT, 5-hydroxytryptamine, reference compound]",inhibition of gastric acid secretion,"gastric acid secretion; 20 micromoles/kg, standard",56.1%
same,ED50,"gastric acid secretion; ip, 2 h, i.p., read-out: ED50",11.5 µmol/kg
same,production of mucus (in words),gastric secretion,increasing the production of mucus
same,inhibition of gastric secretion (in words),gastric secretion,inhibits the volume and acidity of both spontaneous and histamine induced gastric secretion
"N[C@@H](Cc1c[nH]c2ccc(O)cc12)C(=O)O [5-HTP, 5-hydroxytryptophane]",production of mucus (in words),gastric secretion,increasing the production of mucus
same,inhibition of gastric secretion (in words),gastric secretion,inhibits the volume and acidity of both spontaneous and histamine induced gastric secretion
"CCCN(CCC)[C@@H]1CCc2cccc(SC)c2C1.Cl [Evaluation Example 2, (R)-8-Thiomethyl-N,N-dipropyl-2-aminotetralin hydrochloride]",Percent Inhibition,gastric acid secretion; [4],94.9 ± 1.2%
same,ED50,"gastric acid secretion; i.p., 120 min",1.56 µmol/kg
"CCCN(CCC)[C@H]1CCc2cccc(SC)c2C1.Cl [Evaluation Example 3, (S)-8-Thiomethyl-N,N-dipropyl-2-aminotetralin hydrochloride]",Percent Inhibition,gastric acid secretion; [4],89.8 ± 4.9%
same,ED50,"gastric acid secretion; i.p., 120 min",1.42 µmol/kg
CCCN(CCC)C1CCc2cccc(C(N)=O)c2C1 (stereo not shown) [Evaluation Example 4],inhibition in vivo at 10 µmol/kg,gastric acid secretion; [1],82.5 ± 7.4%
"CSc1cccc2c1CC(N(C)C)CC2 (stereo not shown) [Evaluation Example 5, 2-Dimethylamino-8-thiomethyl-1,2,3,4-tetrahydronaphthalene]",inhibition in vivo at 10 µmol/kg,gastric acid secretion; [1],80.7 ± 8.4%
"CCCN(CCC)C1CCc2cccc(Br)c2C1 (stereo not shown) [Evaluation Example 6, 2-Di-n-propylamino-8-bromo-1,2,3,4-tetrahydronaphthalene]",inhibition in vivo at 10 µmol/kg,gastric acid secretion; [1],39.6 ± 10.9%
CCCN(CCC)C1CCc2cccc(F)c2C1 (stereo not shown) [Evaluation Example 7],inhibition in vivo at 10 µmol/kg,gastric acid secretion; [1],24.6 ± 7.9%
"CCCN(CCC)C1CCc2cccc(O)c2C1 (stereo not shown) [Evaluation Example 8, 8-hydroxy-2-dipropylamino-1,2,3,4-tetrahydronaphthalene, reference compound]",inhibition in vivo at 2 µmol/kg,"gastric acid secretion; ip, 2 h, Table I, intraperitoneally, 2 hours",80.1 ± 6.3%
same,ED50,"gastric acid secretion; ip, 2 h, i.p., read-out: ED50",1.56 µmol/kg
same,ED50,"gastric acid secretion; sc, 2 h, s.c., read-out: ED50",0.46 µmol/kg
CCCN(CCC)C1Cc2c[nH]c3ccc(C#N)c(c23)C1 (stereo not shown) [Evaluation Example 9],inhibition in vivo at 10 µmol/kg,gastric acid secretion; [5],92.2 ± 3.2%
CN(C)C1Cc2c[nH]c3ccc(C#N)c(c23)C1 (stereo not shown) [Evaluation Example 10],inhibition in vivo at 10 µmol/kg,gastric acid secretion; [5],91.6 ± 3.9%
CCCN(CCC)C1Cc2c[nH]c3ccc([N+](=O)[O-])c(c23)C1 (stereo not shown) [Evaluation Example 11],inhibition in vivo at 10 µmol/kg,gastric acid secretion; [5],89.8 ± 1.4%
CCCN(CCC)C1Cc2c[nH]c3ccc(Br)c(c23)C1 (stereo not shown) [Evaluation Example 12],inhibition in vivo at 10 µmol/kg,gastric acid secretion; [5],87 ± 1.8%
CCCN(CCC)C1Cc2c[nH]c3ccc(OC)c(c23)C1 (stereo not shown) [Evaluation Example 14],inhibition in vivo at 10 µmol/kg,gastric acid secretion; [5],86.4 ± 4%
same,ED50,"gastric acid secretion; ip, 2 h, i.p., read-out: ED50",< 0.1 µmol/kg
CCCN(CCC)C1Cc2c[nH]c3ccc(C(=O)O)c(c23)C1 (stereo not shown) [Evaluation Example 15],inhibition in vivo at 10 µmol/kg,gastric acid secretion; [5],81.7 ± 5.8%
same,ED50,"gastric acid secretion; ip, 2 h, i.p., read-out: ED50",1 µmol/kg
CCCN(CCC)C1Cc2cn(C(C)C)c3ccc(OC)c(c23)C1 (stereo not shown) [Evaluation Example 16],inhibition in vivo at 10 µmol/kg,gastric acid secretion; [5],80.9 ± 5.5%
CCCN(CCC)C1Cc2c[nH]c3ccc(C(N)=O)c(c23)C1 (stereo not shown) [Evaluation Example 18],inhibition in vivo at 10 µmol/kg,"gastric acid secretion; ip, 2 h",65.5 ± 7.1%
"CCCN(CCC)CCc1c[nH]c2ccc(C(N)=O)cc12 [Evaluation Example 19, N,N-dipropyl-5-carboxamidotryptamine]",inhibition in vivo at 10 µmol/kg,"gastric acid secretion; ip, 2 h",92.7 ± 3.3%
OC(CNC1CC2CCC1C2)COc1ccccc1C1CCCC1 (stereo not shown) [Evaluation Example 20],inhibition in vivo at 10 µmol/kg,gastric acid secretion; [6],72.4 ± 7.5%
"OC(CNC1CCCCCCC1)COc1ccccc1C1CCCC1 (stereo not shown) [Evaluation Example 21, 1-(2-Cyclopentylphenoxy)-3-(cyclooctylamino)-2-propanol ethanedioate]",inhibition in vivo at 10 µmol/kg,gastric acid secretion; [6],65.1 ± 5.7%
"OC(CNC1CCCC1)COc1ccccc1C1CCCC1 (stereo not shown) [Evaluation Example 24, 1-(2-Cyclopentylphenoxy)-3-(Cyclopentylamino)-2-propanol ethanedioate]",inhibition in vivo at 10 µmol/kg,gastric acid secretion; [6],19.7 ± 14.8%
"Oc1cccc2c1OC(CNCCCC1CCCCC1)CO2 (stereo not shown) [Evaluation Example 25, 2-[(3-Cyclohexylpropyl)aminomethyl]-8-hydroxy-1,4-benzodioxane]",inhibition in vivo at 10 µmol/kg,gastric acid secretion; [3],70.4 ± 8.4%
COc1ccc(CCNCC2COc3ccccc3O2)cc1OC (stereo not shown) [Evaluation Example 26],inhibition in vivo at 10 µmol/kg,gastric acid secretion; [3],58.9 ± 6.6%
"CCOc1cccc2c1OC(CNCCc1ccccc1)CO2 (stereo not shown) [Evaluation Example 27, 2-[(2-phenylethyl)aminomethyl]-8-ethoxy-1,4-benzodioxane]",inhibition in vivo at 10 µmol/kg,gastric acid secretion; [3],38.3 ± 15.9%
"c1ccc(CCNCC2COc3ccccc3O2)cc1 (stereo not shown) [Evaluation Example 30, 2-[(2-phenylethyl)aminomethyl]-1,4-benzodioxane]",inhibition in vivo at 10 µmol/kg,gastric acid secretion; [3],0.3 ± 14.1%
CCCN(CCC)C1CC1c1cccc(O)c1 (stereo not shown) [Evaluation Example 31],Inhibition,gastric acid secretion; [7],48.2 ± 17.5
CCCN(CCC)C1CC1c1ccccc1O (stereo not shown) [Evaluation Example 32],Inhibition,gastric acid secretion; [7],22.6 ± 11.8
"O=C1CC2(CCCC2)CC(=O)N1CCCCN1CCN(c2ncccn2)CC1 [Evaluation Example 33, 8-[4-[4-(2-pyrimidinyl)-1-piperazinyl]butyl]8-azaspiro[4.5]decane-7,9-dione, reference compound]",ED50,"gastric acid secretion; sc, 2 h, s.c., read-out: ED50",4.19 µmol/kg
